Experimental data taken from ChEMBL document CHEMBL1201862, “PubChem BioAssay data set” (2004).
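Five compound concentrations were applied to cells in 96-well plates for 48 hours; endpoints were derived by simple linear interpolation of the resulting dose-response curve. Abbreviation: GI50, concentration required for 50% inhibition of growth.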 Active and inactive are the calls of the source. Rule as the data show it: active = GI50 up to about 1.1 µM and inactive = higher.

Legend:
Assay in all cases: growth of human tumour cells (NCI), 48 h
HOP-18 = test system: HOP-18
M19-MEL = test system: M19-MEL
XF498 = test system: XF498
DMS-273 = test system: DMS-273
SNB-78 = test system: SNB-78
DLD-1 = test system: DLD-1
KM-20L2 = test system: KM-20L2
DMS-114 = test system: DMS-114
RXF 631 = test system: RXF 631

| SMILES | GI50 (HOP-18) | GI50 (M19-MEL) | GI50 (XF498) | GI50 (DMS-273) | GI50 (SNB-78) | GI50 (DLD-1) | GI50 (KM-20L2) | GI50 (DMS-114) | GI50 (RXF 631) |
| --- | --- | --- | --- | --- | --- | --- | --- | --- | --- |
| COc1ccc(-c2cc(O)c3cc4c(cc3n2)OCO4)c(OC)c1 | 56.4 µM (inactive) | 43 µM (inactive) | 30.3 µM (inactive) | 33.7 µM (inactive) | 54.7 µM (inactive) | 36.8 µM (inactive) |  |  |  |
| COc1cc2c(c(OC)c1OC)-c1ccc(SC)c(=O)cc1[C@@H](NC(=O)c1ccc(F)cc1)CC2 |  | 0.0409 µM (active) | 0.049 µM (active) | < 0.01 µM (active) | 0.055 µM (active) | 0.0423 µM (active) | 0.0233 µM (active) |  |  |
| CC(C)=CC1CCc2ccccc2N1S(=O)(=O)c1ccc(C)cc1 (centres undefined) | 4.19 µM (inactive) | 1.44 µM (inactive) | 3.63 µM (inactive) | 0.697 µM (active) | 1.44 µM (inactive) | 2.57 µM (inactive) | 1.34 µM (inactive) | 1.06 µM (active) | 2.96 µM (inactive) |
| N/N=C1/C(=O)N(c2ccc(Cl)cc2)C(=O)C(=O)C1c1nc2ccccc2s1 (centres undefined) | > 100 µM (inactive) | > 100 µM (inactive) | > 95.1 µM (inactive) | > 100 µM (inactive) | > 100 µM (inactive) | > 100 µM (inactive) | > 100 µM (inactive) | > 100 µM (inactive) |  |
| COC(=O)CCc1cccnc1/C=N/O | > 100 µM (inactive) | > 100 µM (inactive) |  | > 100 µM (inactive) | > 100 µM (inactive) | > 100 µM (inactive) | > 100 µM (inactive) | > 100 µM (inactive) | > 100 µM (inactive) |
| Cc1ccc(/C=C2\CCCC\C2=N\O)cc1 | 59.6 µM (inactive) | 87.7 µM (inactive) | 31.3 µM (inactive) | 56.8 µM (inactive) | 30.3 µM (inactive) | 41.9 µM (inactive) | 75.9 µM (inactive) |  |  |
| C=CCCCCC1CCC2CCC(CCCCC=C)N12 (centres undefined) | 21.3 µM (inactive) | 20.4 µM (inactive) |  | 20 µM (inactive) |  |  | 12.1 µM (inactive) | 15.7 µM (inactive) |  |
| O=C(Nc1ccccc1)O/N=C1/CCCC/C1=C\c1ccccc1 | 13.7 µM (inactive) | 18.1 µM (inactive) |  | 15.9 µM (inactive) | 12.4 µM (inactive) | 14.6 µM (inactive) | 19.6 µM (inactive) | 12 µM (inactive) | 18.3 µM (inactive) |
| Cc1c(C(=O)/C=C/c2ccccc2Cl)[n+]([O-])c2ccccc2[n+]1[O-] | 15 µM (inactive) | 14.7 µM (inactive) |  | 14.3 µM (inactive) | 12.4 µM (inactive) | 6.53 µM (inactive) | 16.9 µM (inactive) | 6.97 µM (inactive) | 15.2 µM (inactive) |
| CC(=O)C1(O)Cc2c(O)c3c(c(O)c2C(OC2CC(N)C(O)C(C)O2)C1)C(=O)c1ccccc1C3=O (centres undefined) | 0.01 µM (active) |  | < 0.0125 µM (active) | 0.01 µM (active) | 0.0457 µM (active) | 0.023 µM (active) | < 0.0152 µM (active) |  |  |
| CN/N=C(/CC(=O)c1sc(-n2nc(-c3ccccc3)cc2-c2ccccc2)nc1C)C(=O)Nc1ccc(Cl)c(Cl)c1 |  | 42.5 µM (inactive) |  |  | 14 µM (inactive) | 37.6 µM (inactive) |  |  |  |
| O=C(CN1CCCCC1)N1CCc2c([nH]c3ccccc23)C1c1cccnc1 (centres undefined) | > 100 µM (inactive) | > 100 µM (inactive) | > 100 µM (inactive) | > 100 µM (inactive) | > 100 µM (inactive) | > 100 µM (inactive) | > 100 µM (inactive) | > 100 µM (inactive) | > 100 µM (inactive) |
| Cn1cc(C2(C)CC(C)(C)c3c2n(C)c2ccccc32)c2ccccc21 (centres undefined) |  | > 100 µM (inactive) | 81.1 µM (inactive) | > 100 µM (inactive) | > 100 µM (inactive) | > 100 µM (inactive) | > 100 µM (inactive) | 59.6 µM (inactive) |  |
| CC1NOC(=O)C1/N=N/c1ccccc1Br (centres undefined) | 26.5 µM (inactive) | 19 µM (inactive) | 20.3 µM (inactive) | 31.6 µM (inactive) | 26.5 µM (inactive) | 31.6 µM (inactive) | 38.3 µM (inactive) | 18.9 µM (inactive) | 31.3 µM (inactive) |
| CC1(O)CC2C(CC1SCCO)C2(C)C (centres undefined) | > 100 µM (inactive) | > 100 µM (inactive) | > 100 µM (inactive) | > 100 µM (inactive) | > 100 µM (inactive) | > 100 µM (inactive) |  | > 100 µM (inactive) |  |
| COc1ccccc1NC(=O)C1=C(C)NC(C)=C(C(=O)Nc2ccccc2OC)C1c1ccccc1F | > 100 µM (inactive) |  |  | 70.3 µM (inactive) | 51.5 µM (inactive) | > 100 µM (inactive) | 92.9 µM (inactive) | 47.8 µM (inactive) | > 100 µM (inactive) |
| CNC(=O)OCc1nc(SC(C)C)n(C)c1COC(=O)NC | > 100 µM (inactive) | > 100 µM (inactive) |  | 99.8 µM (inactive) | 65.6 µM (inactive) | > 100 µM (inactive) | > 100 µM (inactive) | > 83.6 µM (inactive) |  |
| CC(=O)NC1C(OCc2ccccc2)OC(COC(=O)CCCCCCCCCCNC(=O)CCNc2ccc([N+](=O)[O-])c3[nH]c4ccc(O)cc4c(=O)c23)C(O)C1OC(C)C(=O)N[C@H](C(=O)N[C@H](CCC(=O)O)C(N)=O)C(C)C (some centres undefined) | > 100 µM (inactive) | 79.1 µM (inactive) |  | 40.3 µM (inactive) | 45.7 µM (inactive) | 33.5 µM (inactive) | 25.4 µM (inactive) | 36.2 µM (inactive) | 90.6 µM (inactive) |
| Cn1nc(-c2ccccc2)c(C(=O)/C=C/c2ccc(Cl)cc2)c(N2CCCCC2)c1=O | 2.16 µM (inactive) | 2.25 µM (inactive) | 1.64 µM (inactive) | 2.31 µM (inactive) |  | 2.53 µM (inactive) | 2.43 µM (inactive) | 1.92 µM (inactive) | 3.4 µM (inactive) |
| CC(=O)NNc1nc(C)c(C(=O)NNC(=O)C(=O)Nc2ccc(C)c(C)c2)s1 | > 100 µM (inactive) | 68.1 µM (inactive) |  | > 100 µM (inactive) | > 100 µM (inactive) | 93.8 µM (inactive) | > 100 µM (inactive) | 32.2 µM (inactive) |  |
| [O-][S+]1c2ccc(Cl)cc2CC(SSC2Cc3cc(Cl)ccc3[S+]([O-])c3ccccc32)c2ccccc21 (centres undefined) | > 100 µM (inactive) | > 100 µM (inactive) |  | > 100 µM (inactive) | > 100 µM (inactive) | > 100 µM (inactive) | > 100 µM (inactive) | > 100 µM (inactive) | > 100 µM (inactive) |
| COC(=O)C1=C(C)N(NC(N)=O)C(C)(O)C12CCOC2=O (centres undefined) | > 100 µM (inactive) | > 100 µM (inactive) | > 100 µM (inactive) | > 100 µM (inactive) | > 100 µM (inactive) | > 100 µM (inactive) | > 100 µM (inactive) | > 100 µM (inactive) |  |
| CC12CCC(C)(c3cc(O)c(O)cc31)c1cc(O)c(O)cc12 |  | 13.7 µM (inactive) | 17.1 µM (inactive) | 17.3 µM (inactive) | 17.7 µM (inactive) | 17.5 µM (inactive) | 19 µM (inactive) | 14.8 µM (inactive) | 20.2 µM (inactive) |
